Assay results taken from US20060287319A1, “Anti-viral compositions comprising heterocyclic substituted phenyl furans and related compounds” (priority 2005, published 2006).
Where two headings read alike, the source gives them in different places.

Experiments:
[1] = target: gp41 six-helix bundle formation between N36 and C34 (Human immunodeficiency virus type 1 group M subtype B, UniProt P04578); conditions: read-out: IC50 for inhibition of six-helix bundle formation between N36 and C34; sandwich ELISA, FIG. 3
Procedure: ELISA for screening for compounds that inhibit the gp41 six-helix bundle formation. A sandwich ELISA as previously described (27) was used to screen for compounds that inhibit the gp41 six-helix bundle formation. Briefly, peptide N36 (2 μM) was pre-incubated with a test compound at the indicated concentrations at 37° C. for 30 min, followed by addition of C34 (2 μM). In the control experiments, N36 was pre-incubated with C34 at 37° C. for 30 min, followed by addition of the test compound. After incubation at 37° C. for 30 min, the mixture was added to wells of a 96-well polystyrene plate (Costar, Corning Inc., Corning, N.Y.) which were precoated with IgG (2 μg/ml) purified from rabbit antisera directed against the N36/C34 mixture. […] Absorbance at 450 nm was measured using an ELISA reader (Ultra 384, Tecan, Research Triangle Park, N.C.). […] Chou (Sloan-Kettering Cancer Center, New York, N.Y.).
A model system of the gp41 six-helix bundle was established by mixing the N— and C-peptides at equal molar concentrations (16).

[2] = system: HIV-1 IIIB; assay: HIV-1-mediated cytopathic effect (CPE); format: cell-based; conditions: read-out: EC50 (μM) (M ± SD) for inhibition of CPE
Source text: We thus purchased these compounds and tested their inhibitory activity on: 1) HIV-1 replication (p24 production); 2) HIV-1-mediated cytopathic effect (CPE); and 3) HIV-1 Env-induced cell-cell fusion; and their cytotoxicity to MT-2 cells.

[3] = system: HIV-1IIIB infected H9 cells (H9/HIV-1IIIB) and MT-2 cells; assay: HIV-1 mediated cell-cell fusion (dye transfer assay); format: cell-based; conditions: for EC50: H9/HIV-1IIIB with MT-2 cells, read-out: EC50 (μM) (M ± SD) for inhibition of Cell fusion; for inhibition of fusion of HIV-1IIIB infected H9 cells with uninfected MT-2 cells: dose dependent, FIG. 2
Procedure: Inhibition of cell-cell fusion. A dye transfer assay was used for detection of HIV-1 mediated cell fusion as previously described (11,25,26). H9/HIV-1IIIB cells were labeled with a fluorescent reagent, Calcein-AM (Molecular Probes, Inc., Eugene, Oreg.) and then incubated with MT-2 cells (ratio=1:5) in 96-well plates at 37° C. for 2 hrs in the presence or absence of compounds tested. The fused and unfused Cacein-labeled HIV-1-infected cells were counted under an inverted fluorescence microscope (Zeiss, Germany) with an eyepiece micrometer disc. The percentage of inhibition of cell fusion and the IC50 values were calculated as previously described (11).

[4] = system: laboratory-adapted HIV-1 strains, including RF, SF2, MN, and AZT-R; conditions: dose-dependent
Procedure: (§1) Assessment of anti-HIV-1 infectivity. The inhibitory activity of compounds on infection by laboratory-adapted HIV-1 strains was determined as previously described (34). In brief, 1×10^4 MT-2 cells were infected with HIV-1 at 100 TCID50 (50% tissue culture infective dose) in 200 μl of RPMI 1640 medium containing 10% FBS in the presence or absence of compounds at graded concentrations overnight. For the time-of-addition assay, compounds were added at various time post-infection. Then the culture supernatants were removed and fresh media were added. On the fourth day post-infection, 100 μl of culture supernatants were collected from each well, mixed with equal volumes of 5% Triton X-100 and assayed for p24 antigen, which was quantitated by ELISA (23). Briefly, the wells of polystyrene plates (Immulon 1B, Dynex Technology, Chantilly, Va.) were coated with HIV immunoglobulin (HIVIG), which was prepared from plasma of HIV-seropositive donors with high neutralizing titers against HIV-1IIIB as previously described (36) in 0.085 M carbonate-bicarbonate buffer (pH 9.6) at 4° C. overnight, followed by washes with PBS-T buffer (0.01M PBS containing 0.05% Tween-20) and blocking with PBS containing 1% dry fat-free milk (Bio-Rad Inc., Hercules, Calif.). Virus lysates were added to the wells and incubated at 37° C. for 1 h. […] Reactions were terminated by addition of 1N H2SO4. Absorbance at 450 nm was recorded in an ELISA reader (Ultra 384, Tecan). Recombinant protein p24 (US Biological, Swampscott, Mass.) was included for establishing standard dose response curve.

[5] = system: HIV-1 RF; conditions: read-out: IC50 (μM) (Mean ± SD); HIV-1 strain RF
Procedure: as §1

[6] = system: HIV-1 MN; conditions: read-out: IC50 (μM) (Mean ± SD); HIV-1 strain MN
Procedure: as §1

[7] = system: HIV-1 AZT-R, a strain resistant to AZT; conditions: read-out: IC50 (μM) (Mean ± SD); HIV-1 strain AZT-R
Procedure: as §1

[8] = system: HIV-1 SF2; conditions: read-out: IC50 (μM) (Mean ± SD); HIV-1 strain SF2
Procedure: as §1

[9] = system: HIV-1 IIIB; conditions: for EC50: read-out: EC50 (μM) (M ± SD) for inhibition of p24, MT-2 cells; for SI (CC50/EC50): selectivity index
Procedure: as §1, with “In brief, 1×10^4 MT-2 cells were infected with HIV-1 at 100 TCID50 (50% tissue culture infective dose) in 200 μl of RPMI 1640 medium containing 10% FBS in the presence or absence of compounds at graded concentrations overnight.” left out, “Absorbance at 450 nm was recorded in an ELISA reader (Ultra 384, Tecan).” left out

[10] = read-out: IC50 (μM) (Mean ± SD), HIV-1 strain IIIB

Sequence of gp41 six-helix bundle formation between N36 and C34 (P04578 546-581): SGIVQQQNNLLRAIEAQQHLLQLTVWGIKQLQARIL

SMILES | IC50 [1] [µM] | EC50 [2] [µM] | EC50 [3] [µM] | inhibition of fusion of HIV-1IIIB infected H9 cells with uninfected MT-2 cells [3] | IC50 values, infection by other laboratory-adapted HIV-1 strains [4] | IC50 [5] [µM] | IC50 [6] [µM] | IC50 [7] [µM] | IC50 [8] [µM] | EC50 ([9]; HIV-1 IIIB) [µM] | IC50 [9, 10] [µM] | SI (CC50/EC50) [9] | IC50 [3] [µM] | IC50 ([9]; read-out: IC50 inhibiting HIV-1 replication, HIV-1 IIIB) [µM]
CCN1C(=O)/C(=C/c2ccc(-c3cccc(C(=O)O)c3)o2)SC1=S [NB179] | 2.51 ± 0.27 | 0.924 ± 0.077 | 3.66 ± 0.154 | inhibited fusion | nanomolar range | 4.2 ± 0.256 | 2.93 ± 0.362 | 4.39 ± 0.471 | 11.9 ± 1.7 | 0.501 ± 0.039 | 0.501 ± 0.039 | >1230.77 | – | –
O=C(O)c1cc(-c2ccc(/C=C3\SC(=S)N(CCc4ccccc4)C3=O)o2)ccc1Cl [NB206] | 0.83 ± 0.03 | 0.092 ± 0.002 | 0.459 ± 0.05 | inhibited fusion | nanomolar range | 0.034 ± 0.014 | 0.174 ± 0.027 | 0.046 ± 0.004 | 0.261 ± 0.062 | 0.019 ± 0.002 | – | 981.11 | < 0.667 | 0.019
O=C(O)c1cccc(-c2ccc(/C=C3\SC(=S)N(c4ccc(Cl)cc4Cl)C3=O)o2)c1 [NB231] | 0.93 ± 0.33 | 0.525 ± 0.126 | 0.982 ± 0.054 | inhibited fusion | nanomolar range | 0.152 ± 0.029 | 1.69 ± 0.044 | 0.823 ± 0.053 | 4.68 ± 0.559 | 0.189 ± 0.042 | 0.189 ± 0.042 | 656.56 | – | –
